In US20230131025A1, “QUINOLYL PHOSPHINE OXIDE COMPOUND, AND COMPOSITION AND APPLICATION THEREOF” (Betta Pharmaceuticals Co., Ltd., priority 2020, published 2023):

Experiments:
EGFR WT = EGFR WT (Homo sapiens, UniProt P00533); experiment: Kinase inhibition assay (mobility shift); format: biochemical
Experimental: (§1) Experiment 1 Kinase Inhibition Assay Mobility shift assays were performed to determine inhibitory activity of compounds against EGFR^Δ19del/T790M/C797S, EGFR WT and IGF1R kinases. The enzymatic reaction scheme is as follows:
(§2) 1. Preparing 1*Kinase Buffer as follows:
(§3) 2. Preparing compound concentration gradient: the initial concentration of the compound tested in the assay was 3,000 nM or 100 nM, which is then diluted to be 100-fold final concentration in 100% DMSO in a 384-source plate. Compounds in 10 concentrations were diluted in a 3-fold gradient with Precision. 250 nL of compound in 100-fold final concentration was transferred to OptiPlate-384F plate by using a dispenser named Echo 550.
(§4) 3. Preparing kinase solution at 2.5-fold the final concentration with 1×kinase buffer.
(§5) 4. Adding 10 μL of kinase solution at 2.5-fold the final concentration to compound wells and positive control wells respectively; and adding 10 μL of 1×kinase buffer to negative control wells.
(§6) 5. Centrifuging the wells at 1,000 rpm for 30 seconds, mixing the reaction plate well by shaking and incubating it at room temperature for 10 minutes.
(§7) 6. Preparing a mixed solution of ATP and kinase substrate at 5-fold/3-fold the final concentration with 1×Kinase buffer, respectively.
(§8) 7. Initiating the reaction by adding 15 μL of the mixed solution of ATP and kinase substrate at 5-fold/3-fold the final concentration.
(§9) 8. Centrifuging the 384-well plate at 1,000 rpm for 30 seconds, mixing the reaction plate well by shaking and incubating it at room temperature for a corresponding time.
(§10) 9. Adding 30 μL of assay stop solution to stop the kinase reaction, and centrifuging the plate at 1,000 rpm for 30 seconds and mixing it well by shaking.
(§11) 10. Reading the conversion rate with Caliper EZ Reader.
(§12) [formula] • wherein, “Conversion % sample” is the conversion rate reading of the sample;
(§13) “Conversion %_min” is the mean value of the negative control wells, representing the conversion rate readings of the well without enzymatic activity; “Conversion %_max” is the mean value of the positive control wells, representing the conversion rate readings of the wells without compound inhibition. • Dose-response curve is plotted with the logarithmic concentration on the X-axis and percent inhibition on the Y-axis. The fitting of the dose-response curve is made with the module “log(inhibitor) vs. response—Variable slope” of the analysis software GraphPad Prism 5, so that the IC50 value of each compound on enzymatic activity is obtained. • The calculation formula is: Y=Bottom+(Top−Bottom)/(1+10^((Log IC50−X)*HillSlope)).

EGFR Δ19del/T790M/C797S = EGFR Δ19del/T790M/C797S (Homo sapiens, UniProt P00533, T790M/C797S, form not given); experiment: Kinase inhibition assay (mobility shift); format: biochemical
Experimental: as §1, §2, §3, §4, §5, §6, §7, §8, §9, §10, §11, §12, §13

IGF1R = IGF1R (Homo sapiens, UniProt P08069); experiment: Kinase inhibition assay (mobility shift); format: biochemical
Sequence of IGF1R (P08069 31-1367, species assumed): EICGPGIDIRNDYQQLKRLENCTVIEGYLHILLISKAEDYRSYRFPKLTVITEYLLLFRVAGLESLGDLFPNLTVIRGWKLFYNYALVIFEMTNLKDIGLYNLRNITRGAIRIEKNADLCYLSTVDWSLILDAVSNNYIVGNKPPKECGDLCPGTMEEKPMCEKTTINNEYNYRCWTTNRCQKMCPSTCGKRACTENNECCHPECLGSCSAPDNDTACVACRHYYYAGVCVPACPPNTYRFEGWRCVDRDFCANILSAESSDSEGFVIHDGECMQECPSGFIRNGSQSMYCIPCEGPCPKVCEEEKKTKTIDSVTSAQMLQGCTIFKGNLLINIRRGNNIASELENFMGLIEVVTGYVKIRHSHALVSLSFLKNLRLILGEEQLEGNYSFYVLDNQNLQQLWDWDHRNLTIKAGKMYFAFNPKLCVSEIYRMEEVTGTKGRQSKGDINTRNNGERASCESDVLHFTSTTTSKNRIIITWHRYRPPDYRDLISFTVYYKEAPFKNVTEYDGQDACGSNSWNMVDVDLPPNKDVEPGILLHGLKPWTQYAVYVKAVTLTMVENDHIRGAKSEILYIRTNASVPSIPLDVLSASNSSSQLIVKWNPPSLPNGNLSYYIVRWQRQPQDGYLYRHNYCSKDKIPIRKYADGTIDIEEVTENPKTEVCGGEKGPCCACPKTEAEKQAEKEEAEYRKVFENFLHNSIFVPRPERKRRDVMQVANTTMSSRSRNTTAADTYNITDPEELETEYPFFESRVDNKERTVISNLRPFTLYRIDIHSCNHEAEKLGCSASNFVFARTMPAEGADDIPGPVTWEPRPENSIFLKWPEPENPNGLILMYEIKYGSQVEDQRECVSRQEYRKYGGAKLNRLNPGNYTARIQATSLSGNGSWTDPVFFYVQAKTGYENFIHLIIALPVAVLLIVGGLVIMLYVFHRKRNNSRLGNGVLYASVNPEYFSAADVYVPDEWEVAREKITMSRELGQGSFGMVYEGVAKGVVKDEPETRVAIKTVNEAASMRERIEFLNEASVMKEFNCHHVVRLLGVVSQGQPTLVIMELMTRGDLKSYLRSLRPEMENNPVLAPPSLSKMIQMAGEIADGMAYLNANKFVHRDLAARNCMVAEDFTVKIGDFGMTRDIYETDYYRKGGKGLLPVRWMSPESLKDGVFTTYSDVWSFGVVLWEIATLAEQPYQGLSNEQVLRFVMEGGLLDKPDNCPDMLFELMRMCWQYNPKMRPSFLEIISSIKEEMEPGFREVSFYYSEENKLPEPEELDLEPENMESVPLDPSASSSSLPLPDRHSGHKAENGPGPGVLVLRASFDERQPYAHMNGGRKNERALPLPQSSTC
Experimental: as §1, §2, §3, §4, §5, §6, §7, §8, §9, §10, §11, §12, §13

Ba/F3-Δ19del/T790M/C797S = Ba/F3-Δ19del/T790M/C797S (Homo sapiens, UniProt P00533, T790M/C797S, cells depend on it, form not given); experiment: Cell proliferation experiment (CellTiter Glo, 72 hours); format: cell-based; details: read-out: Ba/F3/EGFR Δ19del/T790M/C797S IC50
Sequence of Ba/F3-Δ19del/T790M/C797S (P00533 with tags, fused parts or gaps DEL746-750/T790M/C797S, form open): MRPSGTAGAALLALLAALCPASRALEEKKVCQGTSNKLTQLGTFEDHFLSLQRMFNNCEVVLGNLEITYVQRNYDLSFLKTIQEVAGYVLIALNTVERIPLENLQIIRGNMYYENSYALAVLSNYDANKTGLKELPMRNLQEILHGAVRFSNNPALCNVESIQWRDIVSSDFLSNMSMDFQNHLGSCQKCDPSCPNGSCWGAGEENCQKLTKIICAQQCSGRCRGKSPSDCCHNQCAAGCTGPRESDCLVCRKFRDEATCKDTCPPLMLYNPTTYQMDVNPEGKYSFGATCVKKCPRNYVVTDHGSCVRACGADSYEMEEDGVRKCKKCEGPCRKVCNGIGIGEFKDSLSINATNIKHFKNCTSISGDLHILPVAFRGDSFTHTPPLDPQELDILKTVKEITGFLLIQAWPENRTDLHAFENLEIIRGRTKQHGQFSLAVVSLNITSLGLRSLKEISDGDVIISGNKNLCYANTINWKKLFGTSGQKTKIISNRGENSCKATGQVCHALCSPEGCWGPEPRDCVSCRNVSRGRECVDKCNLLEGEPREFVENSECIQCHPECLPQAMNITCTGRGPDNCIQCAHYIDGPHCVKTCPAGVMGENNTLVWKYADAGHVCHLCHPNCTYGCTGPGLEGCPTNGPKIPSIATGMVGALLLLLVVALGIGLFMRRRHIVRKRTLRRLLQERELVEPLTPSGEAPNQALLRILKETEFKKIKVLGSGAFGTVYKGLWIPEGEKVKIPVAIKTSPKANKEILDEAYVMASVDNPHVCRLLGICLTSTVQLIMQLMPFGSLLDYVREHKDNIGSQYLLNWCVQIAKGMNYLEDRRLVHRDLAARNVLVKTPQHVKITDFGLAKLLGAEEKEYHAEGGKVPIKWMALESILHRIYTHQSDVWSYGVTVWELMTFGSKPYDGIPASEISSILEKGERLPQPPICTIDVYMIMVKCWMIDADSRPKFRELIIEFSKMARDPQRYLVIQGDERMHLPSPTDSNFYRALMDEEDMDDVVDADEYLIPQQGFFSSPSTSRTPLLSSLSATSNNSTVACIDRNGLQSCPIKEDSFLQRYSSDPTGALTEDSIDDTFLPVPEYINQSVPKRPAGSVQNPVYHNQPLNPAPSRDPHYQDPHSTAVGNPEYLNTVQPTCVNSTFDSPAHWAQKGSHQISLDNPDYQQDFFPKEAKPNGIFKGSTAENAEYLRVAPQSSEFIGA
Experimental: (§14) Experiment 2 Cell Proliferation Experiment
(§15) Suspension cells: Ba/F3 cells with stable overexpression of Δ19del/T790M/C797S mutant gene, named Ba/F3-Δ19del/T790M/C797S; Ba/F3 cells with overexpression of EGFR WT, named Ba/F3 EGFR WT.
(§16) RPMI 1640 with 10% FBS and 1% Penicillin-Streptomycin, or DMEM with 10% FBS and 1% Penicillin-Streptomycin.
(§17) a) Diluting compounds being tested (20 mM stock solutions), as an initial concentration, to 10 mM with 100% DMSO, followed by diluting compounds serially in a 3-fold gradient such that each compound is diluted into 12 concentrations (Cat #P-05525, Labcyte).
(§18) b) Diluting the above compound solutions for 100-fold with culture medium to prepare 10-fold working solution.
(§19) b) Seeding cells into 96-well cell culture plate at a density of 2000 or 3000 cells/well, with 135 μL/well.
(§20) a) Adding the compound prepared in step 2 to the cell plate at 15 μL per well, resulting in a final maximum concentration of 10000 nM or 1111 nM. The compounds is diluted serially in a 3-fold gradient such that each compound is diluted into 9 concentrations, wherein the final concentration of DMSO is 0.1%. Blank control wells are added with medium (0.1% DMSO).
(§21) b) Re-incubating the cells in an incubator for 72 hours. 5. Detection
(§22) a) Adding 50 μL of CTG reagent (CellTiter Glo kit, promega, Cat #G7573) to the 96-well cell culture plate.
(§23) b) Shaking the plate for 2 minutes and reacting at room temperature for 10 minutes.
(§24) c) Reading the luminescence signal value (Lum) using PerkinElmer reader.
(§25) The cell survival inhibition rate of each well was calculated. The data was analyzed by GraphPad Prism 6.0 software. The dose-response curve was obtained by fitting the data with a nonlinear regression equation. The IC50 of each compound was calculated as follows:
(§26) Cell survival inhibition rate (%)=(1−(Lumcompound tested−Lummedium control)/(Lumcell control−Lummedium control))×100%
(§27) Y=Min+(Max−Min)/(1+10^((Log IC50−X)*Slope));
(§28) X: logarithm of compound concentration. Y: cell survival inhibition rate.

Ba/F3 EGFR WT = Ba/F3 EGFR WT (Homo sapiens, UniProt P00533); experiment: as above; format: cell-based; details: read-out: BaF3 EGFR WT IC50
Sequence of Ba/F3 EGFR WT (P00533 whole entry, change not shown): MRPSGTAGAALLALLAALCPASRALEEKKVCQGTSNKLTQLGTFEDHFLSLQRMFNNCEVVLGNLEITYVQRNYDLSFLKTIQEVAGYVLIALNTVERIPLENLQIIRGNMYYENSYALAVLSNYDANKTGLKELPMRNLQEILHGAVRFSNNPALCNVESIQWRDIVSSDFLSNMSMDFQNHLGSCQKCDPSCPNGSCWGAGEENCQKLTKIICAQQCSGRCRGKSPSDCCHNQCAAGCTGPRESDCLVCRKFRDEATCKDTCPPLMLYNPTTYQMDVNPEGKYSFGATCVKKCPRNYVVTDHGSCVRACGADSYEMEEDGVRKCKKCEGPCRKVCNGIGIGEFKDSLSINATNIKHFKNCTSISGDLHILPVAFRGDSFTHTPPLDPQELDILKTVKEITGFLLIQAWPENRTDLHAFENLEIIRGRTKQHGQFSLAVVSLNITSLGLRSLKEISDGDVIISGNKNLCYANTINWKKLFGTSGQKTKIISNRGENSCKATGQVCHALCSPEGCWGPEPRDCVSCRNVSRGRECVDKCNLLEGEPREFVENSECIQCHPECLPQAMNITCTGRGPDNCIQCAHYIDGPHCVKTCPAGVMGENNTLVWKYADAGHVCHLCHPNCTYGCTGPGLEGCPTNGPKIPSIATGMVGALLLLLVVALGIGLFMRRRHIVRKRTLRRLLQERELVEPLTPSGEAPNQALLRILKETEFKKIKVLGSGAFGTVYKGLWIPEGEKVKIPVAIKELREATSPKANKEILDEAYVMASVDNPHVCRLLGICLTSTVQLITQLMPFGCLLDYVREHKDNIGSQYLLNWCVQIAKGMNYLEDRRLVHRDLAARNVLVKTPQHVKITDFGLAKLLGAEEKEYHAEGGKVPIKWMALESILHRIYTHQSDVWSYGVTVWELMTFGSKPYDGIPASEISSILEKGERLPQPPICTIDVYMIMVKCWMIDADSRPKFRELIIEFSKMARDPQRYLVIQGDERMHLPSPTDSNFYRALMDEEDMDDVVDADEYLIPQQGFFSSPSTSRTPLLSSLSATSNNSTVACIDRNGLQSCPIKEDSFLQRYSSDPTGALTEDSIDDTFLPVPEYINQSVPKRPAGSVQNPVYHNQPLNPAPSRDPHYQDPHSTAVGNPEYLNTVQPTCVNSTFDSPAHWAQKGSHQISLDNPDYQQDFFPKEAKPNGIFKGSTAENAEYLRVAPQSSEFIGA
Experimental: as §14, §15, §16, §17, §18, §19, §20, §21, §22, §23, §24, §25, §26, §27, §28

[1] = test system: human epidermal cancer cells A431 carrying EGFR WT; experiment: as above; format: cell-based; details: Homo sapiens, A-431
Experimental: as §14
Adherent cells: human epidermal cancer cells A431 carrying EGFR WT.
as §16, §17, §18, §19, §20, §21, §22, §23, §24, §25, §26, §27, §28

Sequence of EGFR WT (P00533 25-1210): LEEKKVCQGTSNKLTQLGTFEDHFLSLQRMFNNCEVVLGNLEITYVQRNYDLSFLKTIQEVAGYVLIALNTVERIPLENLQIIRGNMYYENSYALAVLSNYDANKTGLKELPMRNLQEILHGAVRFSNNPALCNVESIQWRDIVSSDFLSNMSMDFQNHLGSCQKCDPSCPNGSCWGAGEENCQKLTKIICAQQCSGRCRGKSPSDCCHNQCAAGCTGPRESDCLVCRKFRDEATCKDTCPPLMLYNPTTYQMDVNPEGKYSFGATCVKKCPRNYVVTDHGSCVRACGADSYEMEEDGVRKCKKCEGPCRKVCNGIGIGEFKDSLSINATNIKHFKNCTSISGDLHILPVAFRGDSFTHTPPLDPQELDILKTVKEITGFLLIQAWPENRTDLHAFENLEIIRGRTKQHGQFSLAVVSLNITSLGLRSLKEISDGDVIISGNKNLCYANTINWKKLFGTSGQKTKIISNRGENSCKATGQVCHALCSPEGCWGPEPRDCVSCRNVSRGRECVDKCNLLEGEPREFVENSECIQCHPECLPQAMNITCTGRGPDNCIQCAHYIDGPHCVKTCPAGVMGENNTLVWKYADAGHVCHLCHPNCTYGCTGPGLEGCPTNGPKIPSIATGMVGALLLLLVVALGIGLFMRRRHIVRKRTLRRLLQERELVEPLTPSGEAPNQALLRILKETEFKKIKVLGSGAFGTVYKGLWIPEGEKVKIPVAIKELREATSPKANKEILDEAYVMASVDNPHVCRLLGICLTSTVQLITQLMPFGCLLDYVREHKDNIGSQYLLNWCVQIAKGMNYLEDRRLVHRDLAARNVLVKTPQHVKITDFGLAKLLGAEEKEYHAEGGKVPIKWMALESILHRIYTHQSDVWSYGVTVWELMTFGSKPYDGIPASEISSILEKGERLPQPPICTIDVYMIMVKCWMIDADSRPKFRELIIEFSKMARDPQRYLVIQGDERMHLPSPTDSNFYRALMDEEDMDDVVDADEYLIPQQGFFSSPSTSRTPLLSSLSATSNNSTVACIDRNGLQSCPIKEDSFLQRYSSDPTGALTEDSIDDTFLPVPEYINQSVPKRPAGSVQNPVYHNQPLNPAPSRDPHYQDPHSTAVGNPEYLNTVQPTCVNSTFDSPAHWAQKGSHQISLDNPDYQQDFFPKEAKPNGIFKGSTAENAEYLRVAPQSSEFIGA

| SMILES | IC50 (EGFR WT) [nM] | IC50 (EGFR Δ19del/T790M/C797S) [nM] | IC50 (IGF1R) [nM] | GI50 (Ba/F3-Δ19del/T790M/C797S) [nM] | GI50 (Ba/F3 EGFR WT) [nM] | IC50 [1] [nM] |
| --- | --- | --- | --- | --- | --- | --- |
| COc1cc(N2CCN(C3CCCC3)CC2)c(C)cc1Nc1ncc(Br)c(Nc2ccc3nc(C4CC4)ccc3c2P(C)(C)=O)n1 [Compound J-032, (6-((5-Bromo-2-((4-(4-cyclopentylpiperazin-1-yl)-2-methoxy-5-methylphenyl)amino)pyrimidin-4-yl)amino)-2-cyclopropylquinolin-5-yl)dimethylphosphine oxide] | 121 | 1 | 170 |  |  |  |
| COc1cc(Nc2ncc(Br)c(Nc3ccc4nc(C5CC5)ccc4c3P(C)(C)=O)n2)cc(C)c1N1CCOCC1 [Compound J-006, (6-((5-Bromo-2-((3-methoxy-5-methyl-4-morpholinylphenyl)amino)pyrimidin-4-yl)amino)-2-cyclopropylquinoline-5-yl)dimethylphosphine oxide] | 714 | 3.5 | 437 |  |  |  |
| COc1cc(-c2ccc(N3CCN(C)CC3)cc2)c(C)cc1Nc1ncc(Br)c(Nc2ccc3nc(C4CC4)ccc3c2P(C)(C)=O)n1 [Compound J-040, (6-((5-Bromo-2-((5-methoxy-2-methyl-4′-(4-methylpiperazin-1-yl)-[1,1′-biphenyl]-4-yl)amino)pyrimidin-4-yl)amino)-2-cyclopropylquinolin-5-yl)dimethylphosphine oxide] | 550 | 6 | 1160 |  |  |  |
| COc1cc(Nc2ncc(Br)c(Nc3ccc4nc(C5CC5)ccc4c3P(C)(C)=O)n2)c(C#N)cc1N1CCC(N2CCN(C)CC2)CC1 [Compound J-025, 2-((5-Bromo-4-((2-cyclopropyl-5-(dimethylphosphineoxide)quinolin-6-yl)amino)pyrimidin-2-yl)amino)-4-methoxy-5-(4-(4-methylpiperazin-1-yl)piperidin-1-yl)benzonitrile] | 2310 | 43 | > 3000 |  |  |  |
| COc1cc(N2CCC(N3CCN(C)CC3)CC2)c(F)cc1Nc1ncc(Br)c(Nc2ccc3nc(C4CC4)ccc3c2P(C)(C)=O)n1 [Compound J-019, (6-((5-Bromo-2-((5-fluoro-2-methoxy-4-(4-(4-methylpiperazin-1-yl)piperidin-1-yl)phenyl)amino)pyrimidin-4-yl)amino)-2-cyclopropylquinolin-5-yl)dimethylphosphine oxide] | 16 | 0.33 | 222 |  |  |  |
| CCc1cc(N2CCC(N3CCN(C)CC3)CC2)c(OC)cc1Nc1ncc(Br)c(Nc2ccc3nc(C4CC4)ccc3c2P(C)(C)=O)n1 [Compound J-031, (6-((5-Bromo-2-((2-ethyl-5-methoxy-4-(4-(4-methylpiperazin-1-yl)piperidin-1-yl)phenyl)amino)pyrimidin-4-yl)amino)-2-cyclopropylquinolin-5-yl)dimethylphosphine oxide] | 64 | 0.5 | 103 |  |  |  |
| COc1cc(N2CCN(c3ccncc3)CC2)c(-c2cnn(C)c2)cc1Nc1ncc(Br)c(Nc2ccc3nc(C4CC4)ccc3c2P(C)(C)=O)n1 [Compound J-057, (6-((5-Bromo-2-((2-methoxy-5-(1-methyl-1H-pyrazol-4-yl)-4-(4-(pyridin-4-yl)piperazin-1-yl)phenyl)amino)pyrimidin-4-yl)amino)-2-cyclopropylquinolin-5-yl)dimethylphosphine oxide] |  |  |  | 3 | 54 | 328 |
| COc1cc(N2CCN(c3cccnc3)CC2)c(-c2cnn(C)c2)cc1Nc1ncc(Br)c(Nc2ccc3nc(C4CC4)ccc3c2P(C)(C)=O)n1 [Compound J-056, (6-((5-Bromo-2-((2-methoxy-5-(1-methyl-1H-pyrazol-4-yl)-4-(4-(pyridin-3-yl)piperazin-1-yl)phenyl)amino)pyrimidin-4-yl)amino)-2-cyclopropylquinolin-5-yl)dimethylphosphine oxide] |  |  |  | 0.8 | 38 | 1100 |
| COc1cc(N2CCN(C3CCCC3)CC2)c(C)cc1Nc1ncc(Br)c(Nc2ccc3nc(C4CC4)ccc3c2P(C)(C)=O)n1 [Compound J-037, (6-((5-Bromo-2-((4-(4-cyclopentylpiperazin-1-yl)-2-methoxy-5-methylphenyl)amino)pyrimidin-4-yl)amino)-2-cyclopropylquinolin-5-yl)dimethylphosphine oxide] | 138 |  | 210 |  |  |  |
| COc1cc(N2CCC(N3CCN(C)CC3)CC2)c(-c2cnn(C(F)F)c2)cc1Nc1ncc(Br)c(Nc2ccc3nc(C4CC4)ccc3c2P(C)(C)=O)n1 [Compound J-067, (6-((5-bromo-2-((5-(1-(difluoromethyl)-1H-pyrazol-4-yl)-2-methoxy-4-(4-(4-methylpiperazin-1-yl)piperidin-1-yl)phenyl)amino)pyrimidin-4-yl)amino)-2-cyclopropylquinolin-5-yl)dimethylphosphine oxide] |  |  |  | 2.4 | 37.3 | 632 |
| COc1cc(NCC2CCOCC2)c(-c2cnn(C)c2)cc1Nc1ncc(Br)c(Nc2ccc3nc(C4CC4)ccc3c2P(C)(C)=O)n1 [Compound J-053, (6-((5-Bromo-2-((2-methoxy-5-(1-methyl-1H-pyrazol-4-yl)-4-(((tetrahydro-2H-pyran-4-yl)methyl)amino)phenyl)amino)pyrimidin-4-yl)amino)-2-cyclopropylquinolin-5-yl)dimethylphosphine oxide] |  |  |  | 3.9 | 54 | 753 |
| COc1cc(N2CCC(N3CCN(C)CC3)CC2)c(-c2cnn(C)n2)cc1Nc1ncc(Br)c(Nc2ccc3nc(C4CC4)ccc3c2P(C)(C)=O)n1 [Compound J-046, (6-((5-Bromo-2-((2-methoxy-5-(2-methyl-2H-1,2,3-triazol-4-yl)-4-(4-(4-methylpiperazin-1-yl)piperidin-1-yl)phenyl)amino)pyrimidin-4-yl)amino)-2-cyclopropylquinolin-5-yl)dimethylphosphine oxide] |  |  |  | 1.2 | 117 | 475 |
| COc1cc(Nc2ncc(Br)c(Nc3ccc4nc(C5CC5)ccc4c3P(C)(C)=O)n2)c(C)cc1N1CCC(OC)CC1 [Compound J-033, (6-((5-Bromo-2-((5-methoxy-4-(4-methoxypiperidin-1-yl)-2-methylphenyl)amino)pyrimidin-4-yl)amino)-2-cyclopropylquinolin-5-yl)dimethylphosphine oxide] |  |  |  | 12.9 | 611 | > 10000 |
